Results from US20240148710A1, “INHIBITORS OF CYTOCHROME P450 FAMILY 7 SUBFAMILY B MEMBER 1 (CYP7B1) FOR USE IN MOBILIZATION OF HEMATOPOIETIC STEM AND PROGENITOR CELLS” (priority 2022, published 2024).
Entries after “also recorded” stand apart in the source; their conditions may differ.

Tests used:
colony-forming HSPCs [1] = assay: Mobilization of colony-forming HSPCs into the peripheral blood of sickle cell model mice (CFU count); format: in vivo, sickle cell model mice (Townes model mice); settings: clotrimazole 50 mg/kg/day i.p. for 4 days, AMD3100 s.c. one hour before analyses, FIGS. 4A, 4B
Description: (§1) Mice were treated with 27HC (10 mg/kg/day) and/or G-CSF (250 μg/kg/day) for 4 days and then treated with AMD3100 (5 mg/kg) one hour before the peripheral blood collection (FIG. 1). Peripheral blood mononuclear cells (PBMCs) were isolated by density gradient centrifugation, and were seeded in the methylcellulose culture medium. Colonies were counted after 12 days of culture.
(§2) This experiment was performed as described in Example 1, except, clotrimazole (50 mg/kg/day) was used instead of 27HC.

colony-forming HSPCs [2] = assay: Mobilization of colony-forming HSPCs into the peripheral blood of mice (CFU count of PBMCs in methylcellulose culture); format: in vivo, C57BL/6 mice
Description: To test whether co-administration of 27HC with G-CSF plus another clinically-used HSC mobilizing agent, AMD3100 (a CXCR4 chemokine receptor antagonist that is also known as plerixafor), further enhances HSC mobilization. Two-month-old C57BL/6 mice were treated with a single agent alone, a combination of two agents (27HC+AMD3100, or G-CSF+AMD3100), all three agents combined, or vehicle alone (2-hydroxypropyl-β-cyclodextrin for 27HC, PBS for G-CSF, and PBS for AMD3100).
as §1, §2

colony-forming HSPCs [3] = assay: as above; format: in vivo, C57BL/6 mice; settings: 50 mg/kg/day oral gavage for 4 days, AMD3100 s.c. one hour before analyses, no G-CSF; trends; FIGS. 5A, 5B
HSCs [4] = assay: HSC proliferation and mobilization in mice treated with ERα ligands; format: in vivo; settings: E2: male mice and non-pregnant females
Description: However, the mechanism by which E2 and 27HC, two endogenous ERα ligands, differentially regulate HSCs is unknown. […] E2 levels increase during pregnancy, when extramedullary hematopoiesis (EMH) is induced to increase the production of red blood cells. In addition to increased HSC proliferation, EMH during pregnancy requires increased HSC mobilization, which the present inventors found to also depend on ERα in HSCs. […] Thus, through their differential effects on HSC behavior in vivo—E2 and 27HC act in concert to promote hematopoiesis during pregnancy.

HSCs [5] = settings: recently demonstrated; cited from earlier work
colony-forming HSPCs [6] = settings: AMD3100 s.c. injection; cited from earlier work

## Clc1ccccc1C(c1ccccc1)(c1ccccc1)n1ccnc1 [clotrimazole]
colony-forming HSPCs [1]
  CFUs (including CFU-gmEM) in the peripheral blood, two-agent combination with AMD3100 versus AMD3100 single agent: significantly more CFUs, including CFU-gmEM, than the single-agent AMD3100 treatment
colony-forming HSPCs [2]; clotrimazole 50 mg/kg/day i.p. for 4 days, G-CSF s.c. for 4 days, AMD3100 one hour before analyses, FIGS. 3C, 3D
  CFUs (including CFU-gmEM) in the peripheral blood, three-agent combination with G-CSF and AMD3100 versus G-CSF and AMD3100: more CFUs, including CFU-gmEM, than the two-agent combination treatment with G-CSF and AMD3100
colony-forming HSPCs [2]; clotrimazole 50 mg/kg/day i.p., AMD3100 s.c. one hour before analyses, FIGS. 3A, 3B
  CFUs in the peripheral blood, two-agent combination with AMD3100 versus AMD3100 single agent: significantly more CFUs than the single-agent AMD3100 treatment
colony-forming HSPCs [3]
  CFUs (including CFU-gmEM) in the peripheral blood, two-agent combination with AMD3100 versus AMD3100 single agent: synergistic effects with the single-agent AMD3100 treatment

## C[C@@H](CO)CCC[C@@H](C)[C@H]1CC[C@H]2[C@@H]3CC=C4C[C@@H](O)CC[C@]4(C)[C@H]3CC[C@]12C [27HC, 27-hydroxycholesterol]
colony-forming HSPCs [2]; 27HC 10 mg/kg/day and G-CSF 250 μg/kg/day s.c. for 4 days, AMD3100 5 mg/kg one hour before collection, FIGS. 2C, 2D
  CFUs (including CFU-gmEM) in the peripheral blood, three-agent combination with G-CSF and AMD3100 versus G-CSF and AMD3100: significantly more CFUs, including CFU-gmEM, than the two-agent combination treatment with G-CSF and AMD3100; also recorded: mobilized more colony-forming HSPCs as compared to a single agent alone or a combination of two agents
colony-forming HSPCs [2]; 27HC 10 mg/kg/day s.c. for 4 days, AMD3100 5 mg/kg s.c. one hour before blood collection, FIGS. 2A, 2B
  CFUs in the peripheral blood, two-agent combination with AMD3100 versus AMD3100 single agent: significantly more CFUs than the AMD3100 single-agent treatment; also recorded: mobilized colony-forming HSPCs significantly more than AMD3100 alone
colony-forming HSPCs [2]; FIG. 2
  HSC mobilization on treating mice with 27HC: promotes HSC mobilization
HSCs [4]
  Effect of administration on HSC proliferation and mobilization (found by the present inventors): induces HSC mobilization (but not proliferation)
HSCs [5]
  Effect of treatment of mice on HSC proliferation and mobilization: induces ERα-dependent HSC mobilization but not proliferation

## c1cc(CN2CCCNCCNCCCNCC2)ccc1CN1CCCNCCNCCCNCC1 [AMD3100]
colony-forming HSPCs [6]
  Time of peak mobilization of HSCs after AMD3100 injection: one hour post administration

## CC(C)(C(=O)c1cccnc1)c1cccnc1 [metyrapone]
colony-forming HSPCs [3]
  CFUs (including CFU-gmEM) in the peripheral blood, two-agent combination with AMD3100 versus AMD3100 single agent: generated more CFUs, including CFU-gmEM, than the single-agent AMD3100 treatment

## C[C@@H](c1ncncc1F)[C@](O)(Cn1cncn1)c1ccc(F)cc1F [voriconazole]
colony-forming HSPCs [3]
  CFUs (including CFU-gmEM) in the peripheral blood, two-agent combination with AMD3100 versus AMD3100 single agent: generated more CFUs, including CFU-gmEM, than the single-agent AMD3100 treatment

## C[C@]12CC[C@@H]3c4ccc(O)cc4CC[C@H]3[C@@H]1CC[C@@H]2O [E2, 17β-estradiol]
HSCs [4]
  Effect of administration on HSC proliferation and mobilization (found by the present inventors): induces HSC proliferation but not mobilization
HSCs [5]
  Effect of treatment of mice on HSC proliferation and mobilization: induces HSC proliferation but not mobilization
